Results published in patent publication EP3389689B1, “ACTIVE INGREDIENTS FOR TOPICAL APPLICATION” (priority 2015, dated 2021).

Tests used:
[1] = test system: genes involved in collagen fiber maturation; assay: Gene-expression analysis, summary statement in words; assay type: cell-based, human; settings: result in words; fibroblasts, 0.01%, 24hrs
Protocol: (§1) Normal human dermal fibroblasts at passage 7 from a donor were cultured in DMEM with L-glutamine 2mM, Penicillin 50U/ml-Streptomycin 50ug/ml and 10% FCS in a 5% CO2 atmosphere at 37°C. After equilibration of cell in 1% FCS for 24hrs the respective peptides H-(beta-Ala)-Pro-Dab-NH-benzyl [CAS 823202-99-9], respectively N-palmitoyl-Gly-His-Lys [147732-56-7] / N-palmitoyl-Gly-Gln-Pro-Arg [221227-05-0] (2:1) diluted in growth medium to a concentration of 0.01% were added and the cells were incubated for an additional 24hrs. At the end of incubation cells were washed in PBS and immediately frozen at -80°C. Total RNA was extracted using NucleoSpin RNA Plus kit (Macherey-Nagel) according to supplier's instructions. cDNA was synthesized by reverse transcription of total RNA using Transcriptor Reverse Transcriptase (Roche). PCR was performed on a LightCycler device (Roche Molecular Systems Inc.) according to manufacturer's instructions. Raw data were analyzed using Microsoft Excel.

ADAMTS2 = assay: Gene-expression analysis (PCR) in normal human dermal fibroblasts; assay type: cell-based; settings: peptide 0.01% in growth medium, timepoint 24hrs
Protocol: as §1

LOXL2 = assay: as above; assay type: cell-based; settings: peptide 0.01% in growth medium, timepoint 24hrs
Protocol: as §1

PLOD3 = assay: as above; assay type: cell-based; settings: peptide 0.01% in growth medium, timepoint 24hrs
Protocol: as §1

PCOLCE = assay: as above; assay type: cell-based; settings: peptide 0.01% in growth medium, timepoint 24hrs
Protocol: as §1

How did the “up-regulation of genes involved in collagen fiber maturation” value [1] turn out when “N-palmitoyl-Gly-His-Lys [147732-56-7] / N-palmitoyl-Gly-Gln-Pro-Arg [221227-05-0] (2:1)” was run?
Its value is “only up-regulates LOXL2 and much less PLOD3”.

And the “gene expression ADAMTS2” value (ADAMTS2)?
The value was 105%.

And the “gene expression LOXL2” value (LOXL2)?
The value was 292%.

And the “gene expression PLOD3” value (PLOD3)?
The value was 163%.

And the “gene expression PCOLCE” value (PCOLCE)?
The value was 94%.
